The source made the active and inactive calls. The calls are words filed in the database; no cut-off is given here.

Data set [1] has as its system SW1990. Put plainly: Effect on cell cycle progression in human SW1990 cells assessed as reduction in E2F2 expression at 1 to 2 uM after 4 days by Q-PCR analysis. Format: functional, cell-based. The note with it: dose 1-2 µM, time 4.0 day.
Data set [2] has as its target Bromodomain-containing protein 4 (Homo sapiens, UniProt O60885). Put plainly: Inhibition of BRD4 expression in human SW1990 cells at 1 uM after 4 days by Western blot analysis. In kind it is cell-based. The note with it: time 4.0 day. On the technique in general: In western blotting, separated proteins are transferred to a membrane and probed.
The subject of data set [3] is SW1990. Kind of data set: Inhibition of colony formation in human SW1990 cells at 1 uM after 14 days by crystal violet staining based microscopic analysis. Format: functional, cell-based. The settings on record: time 14.0 day.
In data set [4] the test system is SW1990. Kind of data set: Inhibition of homologous recombinant repair in human SW1990 cells assessed as reduction in c-Myc expression at 1 to 2 uM after 4 days by Q-PCR analysis. Format: functional, cell-based. The note with it: dose 1-2 µM, time 4.0 day.
The test system of data set [5] is SW1990. Put plainly: Effect on cell cycle progression in human SW1990 cells assessed as reduction in CDK6 expression at 1 to 2 uM after 4 days by Q-PCR analysis. In kind it is functional, cell-based. The settings on record: dose 1-2 µM, time 4.0 day.
The subject of data set [6] is Mus musculus. Put plainly: Effect on cell cycle progression in human SW1990 cells xenografted in BALB/c mouse assessed as reduction in CCND1 expression at 45 mg/kg, ip after 4 days by Western blot analysis. Format: functional, organism-based. The settings on record: time 4.0 day. For orientation: A xenograft is tissue or cells of one species grown in another, often human tumour cells in immunodeficient mice.

Data set [7] has as its system SW1990. Kind of data set: Inhibition of homologous recombinant repair in human SW1990 cells assessed as reduction in BRCA1 expression at 1 to 2 uM after 4 days by Q-PCR analysis. The settings on record: dose 1-2 µM, time 4.0 day. In kind it is functional, cell-based.
The subject of data set [8] is SW1990. Kind of data set: Antitumor activity against human SW1990 cells xenografted in BALB/c mouse assessed as inhibition of tumor growth at 45 mg/kg, ip administered for 28 consecutive days and measured every 3 days by vernier caliper method. The note with it: time 28.0 day. In kind it is functional, organism-based.
For data set [9], the system named is SW1990. Put plainly: Effect on cell cycle progression in human SW1990 cells assessed as reduction in CCND1 expression at 1 to 2 uM after 4 days by Q-PCR analysis. Format: functional, cell-based. The settings on record: dose 1-2 µM, time 4.0 day.
Data set [10] concerns SW1990. Kind of data set: Induction of autophagy in human SW1990 cells assessed as reduction in p62 expression at 1 to 2 uM incubated for 4 days by immunofluorescence assay. The settings on record: dose 1-2 µM, time 4.0 day. In kind it is functional, cell-based.
Data set [11] relates to SW1990. Kind of data set: Induction of cell cycle arrest in human SW1990 cells assessed as accumulation of cells at G0/G1 phase at 1 uM incubated for 4 days by propidium iodide staining based flow cytometry (reference value: 64.79%). Format: functional. The settings on record: time 4 day. On the technique in general: A flow cytometer gives signals particle by particle.
Data set [12] relates to Mus musculus. Kind of data set: Toxicity in BALB/c mouse xenografted with human SW1990 cells assessed as spleen damage at 45 mg/kg, ip administered for 28 consecutive days by H and E staining based […] microscopic analysis. The settings on record: in vivo, 672 h, time 28 day. Format: organism-based.
Data set [13] relates to Mus musculus. Put plainly: Effect on cell cycle progression in human SW1990 cells xenografted in BALB/c mouse assessed as reduction in PLK1 expression at 45 mg/kg, ip after 4 days by Western blot analysis. In kind it is functional, organism-based. The note with it: time 4.0 day.
Data set [14] concerns SW1990. Kind of data set: Induction of cell cycle arrest in human SW1990 cells assessed as accumulation of cells at G0/G1 phase at 2 uM incubated for 4 days by propidium iodide staining based flow cytometry (reference value: 64.79%). Format: functional. The note with it: time 4 day.
Data set [15] has as its system SW1990. Put plainly: Induction of apoptosis in human SW1990 cells assessed as late apoptotic cells at 2 uM after 4 days by Annexin V-FITC and propidium iodide staining based flow cytometry (reference value: 6.22%). In kind it is functional. The settings on record: time 4 day.
The target in data set [16] is Bromodomain testis-specific protein (Homo sapiens, UniProt Q58F21). Put plainly: Inhibition of recombinant BRDT BD1 (unknown origin) incubated for 120 mins by TR-FRET assay.
For data set [17], the system named is SW1990. Put plainly: Inhibition of homologous recombinant repair in human SW1990 cells assessed as reduction in Olaparib-induced FOXM1 expression at 1 uM after 4 days in presence of Olaparib by Q-PCR analysis. The settings on record: time 4.0 day. Format: functional, cell-based.
Data set [18] relates to Mus musculus. Kind of data set: In vivo inhibition of PARP1 expression in human […] cells xenografted in BALB/c mouse assessed as reversal of Olaparib-induced PARP1 accumulation at 15 mg/kg, ip administered for 28 consecutive days in presence of 45 mg/kg Olaparib by Q-PCR analysis. In kind it is functional, organism-based. The note with it: time 28.0 day.
For data set [19], the system named is SW1990. Put plainly: Inhibition of colony formation in human SW1990 cells at 0.5 uM after 14 days in presence of 1.5 uM Olaparib by crystal violet staining based microscopic analysis. Format: functional, cell-based. The settings on record: time 14.0 day.
The subject of data set [20] is SW1990. Kind of data set: Effect on cell cycle progression in human SW1990 cells assessed as reduction in Olaparib-induced PLK1 expression at 1 uM after 4 days in presence of Olaparib by Western blot analysis. Format: functional, cell-based. The settings on record: time 4.0 day.
Data set [21] deals with SW1990. Kind of data set: Induction of apoptosis in human SW1990 cells assessed as necrotic cells at 4 uM after 4 days by Annexin V-FITC and propidium iodide staining based flow cytometry (reference value: 1.89%). Format: functional. The note with it: time 4 day.
Data set [22] concerns Mus musculus. Kind of data set: Toxicity in BALB/c mouse xenografted with human SW1990 cells assessed as heart damage at 15 mg/kg, ip administered for 28 consecutive days by H and E staining based […] microscopic analysis. In kind it is organism-based. The settings on record: in vivo, 672 h, time 28 day.
In data set [23] the test system is SW1990. Put plainly: Inhibition of homologous recombinant repair in human SW1990 cells assessed as reduction in Olaparib-induced BRCA1 expression at 1 uM after 4 days in presence of Olaparib by Western blot analysis. Format: functional, cell-based. The settings on record: time 4.0 day.
The subject of data set [24] is Mus musculus. Kind of data set: Toxicity in BALB/c mouse xenografted with human SW1990 cells assessed as liver damage at 15 mg/kg, ip administered for 28 consecutive days by H and E staining based […] microscopic analysis. Format: organism-based. The settings on record: in vivo, 672 h, time 28 day.
Data set [25] deals with SW1990. Put plainly: Effect on cell cycle progression in human SW1990 cells assessed as reduction in Olaparib-induced CCND1 expression at 1 uM after 4 days in presence of Olaparib by Western blot analysis. The settings on record: time 4.0 day. Format: functional, cell-based.

The IC50 is the concentration that inhibits the measured activity by half. Consider `CC[C@@H]1C(=O)N(C)c2cnc(N(C)c3ccc(-c4nc5c(C(N)=O)cccc5[nH]4)cc3OC)nc2N1C1CCCC1`, for which the result in [1], in data set [5], in data set [6], in data set [8], in data set [9] and in [10] was Active. For the same compound, the result in [13] was Active. For the same compound, the inhibition result in data set [2], in data set [3], in data set [4] and in data set [7] was “Active” throughout. Besides, the Activity in data set [11] is reported as 74.76%; in data set [12] it was “Non-Toxic”; in data set [14], 77.56%; in data set [15], 40.3%. In data set [16], the IC50 came to 1.2 µM.

Turning to `Cc1sc2c(c1C)C(c1ccc(Cl)cc1)=N[C@@H](CC(=O)OC(C)(C)C)c1nnc(C)n1-2`, the inhibition entry in [17], in [19] and in data set [23] was “Active” in each case. Besides, the outcome in data set [18], in [20] and in data set [25] was Active. Further, the Activity is listed as 1.23% in data set [21], “Non-Toxic” in data set [22] and “Non-Toxic” in [24].

(Values after ChEMBL document CHEMBL5053549, “Discovery of Potent and Novel Dual PARP/BRD4 Inhibitors for Efficient Treatment of Pancreatic Cancer” (J Med Chem, 2021).)
